Results taken from patent publication US10974293B2, “Device for phyto-ecological monitoring” (priority 2014, dated 2021).
Read-outs that look alike come from different tables or passages of the source.

System: lettuce
Assay type: in vivo, Lactuca vulgaris
Conditions: arsenic in water 0 to 100 ppm
Text: The arbuscular mycorrhizal spore germination and growth assay (a) consists of a glass slide (22) with a strip of blotter paper (25) of the same width as the glass slide overlain upon it. A semi-circle of gridded, nitrocellulose filter paper is laid on top of the blooter paper. Fungal spores are then placed into one or more segments of the grid, and then covered with a cover slip (not shown). The entire assembly is then held together using non-toxic retainer rings, or alternatively glued together with a non-toxic glue. When the glass slide assay is placed into the slider cartridge (21, FIG. 5) and then into the device of current invention, and deployed in the field and exposed to moisture, the spores produce hyphae, which can be quantitatively observed using optical microscope. The degree of branching of hyphae can be used as outcome of the assay and correlated with contaminants present in the soil and/or water. The small seed germination assay (b) (FIG. 6) also contains a glass slide with two layers of fitted blotter paper strips (25): first layer of fitied blotter paper is the strip without holes, and a second blotter paper strip which has holes of about 2-3 mm in diameter as shown in FIG. 6. Plant seeds (26) are placed in one or more holes, and the assembly is then covered with a standard laboratory cover slip and held together by a non-toxic retaining ring or a glue. […]

For `[AsH3]` [arsenic], the “root growth response to arsenic exposure” value (horizontally grown seedlings) was “not evident” and the “root growth response to arsenic exposure” value (vertically oriented seedlings) was “hermetic response (enhanced growth at low concentrations of a toxicant)”.
